Assay results: US7244756B2, “Benzimidazol-2-one derivatives and their use” (Poseidon Pharmaceuticals A/S, priority 2002, dated 2007)
Read-outs that look alike come from different tables or passages of the source.

How the values were obtained:
[1] = Pharmacokinetic parameters in rats (i.v. and p.o. dosing, plasma LC-MS/MS); assay type: in vivo, male Wistar rats; details: rat; for half-life / Cmax / Tmax / bioavailability / Vd: male, Wistar, plasma
Procedure: In this example the pharmacokinetic parameters of Compound 1 of the invention are compared to those of a close analogue of the prior art, i.e. 1,3-dihydro-1-[2-hydroxy-5-(trifluoromethyl)phenyl]-5-(trifluoromethyl)-2H-Benzimidazol-2-one (i.e. NS1619 described WO 01/54711) herein designated the Reference Compound.
The blood samples were centrifuged at 1.300 g at 4° C. for 25 minutes and the resulting plasma samples were stored at <−15° C. pending analysis.
The compounds were dosed as clear solutions in phosphate buffer/Tween 80 (90:10) in a concentration of 3 mg/ml.
Aliquots of samples, calibrants and QC's (100 μl) were pipetted into 1.5 ml eppendorf tubes. To each tube (except matrix blank) was added 300 μl acetonitrile with internal standards. Matrix blank was added 300 μl acetonitrile without internal standard.
The tubes were shaken on a whirlimixer and then centrifuged for 25 minutes at 16.000 g at 5° C. to precipitate proteins.
An aliquot (200 μl) of the supernatant was transferred to another 1.5 ml eppendorf tube and evaporated to dryness under a gentle stream of nitrogen at 40° C. Then the samples were reconstituted in […] (initial composition).
Incorporating the data from the rat plasma analyses, the pharmacokinetic parameters were calculated using WinNonLin Professional Edition version 2.0.

[2] = Stability in solution (water, 0.1M HCl, 0.1M NaOH, 60° C., HPLC); assay type: physicochemical
Procedure: In this example the stability of Compound 1 of the invention are compared to those of a close analogue of the prior art, i.e. 1,3-dihydro-1-[2-hydroxy-5-(trifluoromethyl)phenyl]-5-(trifluoromethyl)-2H-Benzimidazol-2-one (i.e. NS1619 described in WO 01/54771) herein designated the Reference Compound.
The stability is determined in neutral (H2O), in basic (0.1M NaOH) and in acidic solution (0.1M HCl).
50 ml of water was added to 27 mg of the reference compound. The compound was only partly dissolved. The suspension was stored at 60° C. and after 24 hours 25 ml of methanol was added in order to completely dissolve reference compound. The solution was stored for further 4 hours and then analysed by HPLC (t=28 hours).
50 ml of 0.1M hydrochloric acid was added to 27 mg of the reference compound. The compound was only partly dissolved. The suspension was stored at 60° C. and after 48 hours 25 ml of methanol was added in order to completely dissolve he reference compound. The solution was stored for further 4. hours and then arialysed by HPLC (t=52 hours).
50 ml of 0.1M sodium hydroxide was added to 24 mg of the reference compound. The compound was completely dissolved. The solution was stored at 60° C. and analysed by HPLC after 2 hours (t=2 hours).
(§1) 50 ml of water was added to 25 mg of Compound 1. The compound was only partly dissolved. The suspension was stored at 60° C., and after 48 hours, 25 ml of acetonitrile was added in order to completely dissolve Compound 1. The solution was stored for further 24 hours and then analysed by HPLC (t=72 hours).
as §1, with “of 0.1M hydrochloric acid” for “of water”, “to 27” for “to 25”, “was only-partly” for “was only partly”
50 ml of 0.1M sodium hydroxide was added to 26 mg of Compound 1. The compound was completely dissolved. The solution was stored at 60° C. and analysed by HPLC after 72 hours (t=72 hours).

[3] = target: T1, large conductance calcium-activated potassium (BKCa) channels (Cavia porcellus, UniProt A0A286XP95); details: guinea pig airways, via activation of BKCa channels; cited from earlier work
T1 construct: sensory fibers innervating the guinea pig airways; host or cells: guinea pig airway sensory nerve fibers (native tissue)
T1 sequence (A0A286XP95 1-1133): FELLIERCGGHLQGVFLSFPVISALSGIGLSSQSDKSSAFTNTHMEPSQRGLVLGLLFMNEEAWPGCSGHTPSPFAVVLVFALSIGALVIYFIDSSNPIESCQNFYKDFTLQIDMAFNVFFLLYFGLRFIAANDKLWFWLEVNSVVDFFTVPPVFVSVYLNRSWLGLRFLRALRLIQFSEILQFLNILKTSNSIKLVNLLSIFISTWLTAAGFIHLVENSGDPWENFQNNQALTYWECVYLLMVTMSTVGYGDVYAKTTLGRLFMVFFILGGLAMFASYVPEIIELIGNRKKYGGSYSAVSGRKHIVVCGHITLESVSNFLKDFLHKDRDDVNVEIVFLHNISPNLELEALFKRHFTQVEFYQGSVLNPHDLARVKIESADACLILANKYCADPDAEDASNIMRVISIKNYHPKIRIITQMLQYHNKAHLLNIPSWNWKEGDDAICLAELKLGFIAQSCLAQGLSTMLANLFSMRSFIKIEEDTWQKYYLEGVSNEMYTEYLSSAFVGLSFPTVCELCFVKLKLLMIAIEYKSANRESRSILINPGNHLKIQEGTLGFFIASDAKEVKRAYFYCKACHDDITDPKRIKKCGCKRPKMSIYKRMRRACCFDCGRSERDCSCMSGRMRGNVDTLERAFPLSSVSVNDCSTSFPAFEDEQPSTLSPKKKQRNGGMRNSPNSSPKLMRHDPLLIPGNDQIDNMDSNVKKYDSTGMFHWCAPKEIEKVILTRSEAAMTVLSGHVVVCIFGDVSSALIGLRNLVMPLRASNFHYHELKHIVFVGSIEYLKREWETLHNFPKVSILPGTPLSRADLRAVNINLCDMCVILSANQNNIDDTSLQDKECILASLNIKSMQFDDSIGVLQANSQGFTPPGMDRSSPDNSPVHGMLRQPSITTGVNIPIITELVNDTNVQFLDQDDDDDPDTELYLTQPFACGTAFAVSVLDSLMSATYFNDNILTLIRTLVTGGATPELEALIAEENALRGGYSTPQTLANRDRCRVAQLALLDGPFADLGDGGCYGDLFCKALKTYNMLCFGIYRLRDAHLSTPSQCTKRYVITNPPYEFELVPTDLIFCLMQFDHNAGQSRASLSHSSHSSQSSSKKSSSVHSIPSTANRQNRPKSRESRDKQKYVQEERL

[4] = iv, i.v. 3 mg/kg, time-points 5 min–5 h, read-out: T1/2 (i.v.) (converted)
[5] = po, p.o. 30 mg/kg, i.v. 3 mg/kg
[6] = po, p.o. 30 mg/kg, time-points 3–24 h (Ref. Cpd.), 2–24 h (Cpd. 1), read-out: T1/2 (p.o.) (converted)

## O=c1[nH]c2cc(C(F)(F)F)ccc2n1-c1cc(C(F)(F)F)ccc1O [Reference Compound, 1,3-dihydro-1-[2-hydroxy-5-(trifluoromethyl)phenyl]-5-(trifluoromethyl)-2H-Benzimidazol-2-one]
[1]; [4]
  half-life: 1.7 h
[1]; po, p.o. 30 mg/kg
  Cmax: 10000 ng/mL
  Tmax: 3 h
[1]; [5]
  bioavailability: 145%
[1]; [6]
  half-life: 2.5 h
[1]
  Vd: 1.1 L/kg
[1]; p.o.
  Time after which Cmax after p.o. administration is reached: 3 h
[2]; HCl (0.1M), 60° C., Initial
  Area% (UV 225 nm) of the Test Substance: 98.4%
[2]; HCl (0.1M), 60° C., t = 52 hours
  Area% (UV 225 nm) of the Test Substance: 98.4%
[2]; NaOH (0.1M), 60° C., Initial
  Area% (UV 225 nm) of the Test Substance: 98.4%
[2]; NaOH (0.1M), 60° C., t = 2 hours
  Area% (UV 225 nm) of the Test Substance: 0.0%
[2]; Water, 60° C., Initial
  Area% (UV 225 nm) of the Test Substance: 98.4%
[2]; Water, 60° C., t = 28 hours
  Area% (UV 225 nm) of the Test Substance: 96.7%
[2]; dissolved in 0.1 M NaOH
  Stability in 0.1 M NaOH (in words): degrades instantly
[2]; neutral, acidic and basic solution, 60° C.
  Stability in solution (in words): unstable in neutral to basic solutions
[3]
  Effect on activity of myelinated and non-myelinated airway sensory fibers: inhibits the activity

## O=c1[nH]c2cc(Cl)ccc2n1-c1cc(Cl)ccc1O [Compound 1, 5-Chloro-1-(5-chloro-2-hydroxy-phenyl)-1,3-dihydro-benzimidazole-2-one]
[1]; [4]
  half-life: 0.8 h
[1]; po, p.o. 30 mg/kg
  Cmax: 4200 ng/mL
  Tmax: 0.5 h
[1]; [5]
  bioavailability: 97%
[1]; [6]
  half-life: 3.2 h
[1]
  Vd: 1.9 L/kg
[1]; p.o.
  Absorption compared to the reference compound: faster absorption
  Half-life after p.o. administration compared to the reference compound: slightly longer
  Time after which Cmax after p.o. administration is reached: 0.5 h
[2]; HCl (0.1M), 60° C., Initial
  Area% (UV 225 nm) of the Test Substance: 99.7%
[2]; HCl (0.1M), 60° C., t = 72 hours
  Area% (UV 225 nm) of the Test Substance: 99.6%
[2]; NaOH (0.1M), 60° C., Initial
  Area% (UV 225 nm) of the Test Substance: 99.7%
[2]; NaOH (0.1M), 60° C., t = 72 hours
  Area% (UV 225 nm) of the Test Substance: 99.4%
[2]; Water, 60° C., Initial
  Area% (UV 225 nm) of the Test Substance: 99.7%
[2]; Water, 60° C., t = 72 hours
  Area% (UV 225 nm) of the Test Substance: 99.6%
